# What was measured:
# [1] = biological target: Sodium-dependent serotonin transporter (Rattus norvegicus, UniProt P31652); assay: In vitro inhibition of [3H]5-HT transporter uptake in rat brain synaptosomes; type: subcellular
# [2] = biological target: T1, Adrenergic receptor alpha-1 (Rattus norvegicus, UniProt P15823+P23944+P43140); assay: Inhibition of [3H]prazosin binding to alpha-1 adrenergic receptor from rat cortical membranes; type: cell membranes, Membrane
# T1 sequence (P15823 whole entry): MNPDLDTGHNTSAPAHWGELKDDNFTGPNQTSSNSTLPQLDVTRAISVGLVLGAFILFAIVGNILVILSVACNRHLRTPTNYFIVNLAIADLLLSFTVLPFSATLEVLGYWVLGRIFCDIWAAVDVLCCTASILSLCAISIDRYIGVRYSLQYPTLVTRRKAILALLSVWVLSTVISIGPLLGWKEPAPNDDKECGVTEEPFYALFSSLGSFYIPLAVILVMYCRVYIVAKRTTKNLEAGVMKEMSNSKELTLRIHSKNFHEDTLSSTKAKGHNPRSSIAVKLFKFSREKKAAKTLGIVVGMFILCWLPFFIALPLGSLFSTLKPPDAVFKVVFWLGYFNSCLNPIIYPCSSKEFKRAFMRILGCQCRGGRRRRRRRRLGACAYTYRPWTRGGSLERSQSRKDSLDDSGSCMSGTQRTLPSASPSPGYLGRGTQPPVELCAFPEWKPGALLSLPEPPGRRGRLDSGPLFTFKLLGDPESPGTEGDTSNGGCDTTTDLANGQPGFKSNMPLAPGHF
# T1 sequence (P23944 whole entry): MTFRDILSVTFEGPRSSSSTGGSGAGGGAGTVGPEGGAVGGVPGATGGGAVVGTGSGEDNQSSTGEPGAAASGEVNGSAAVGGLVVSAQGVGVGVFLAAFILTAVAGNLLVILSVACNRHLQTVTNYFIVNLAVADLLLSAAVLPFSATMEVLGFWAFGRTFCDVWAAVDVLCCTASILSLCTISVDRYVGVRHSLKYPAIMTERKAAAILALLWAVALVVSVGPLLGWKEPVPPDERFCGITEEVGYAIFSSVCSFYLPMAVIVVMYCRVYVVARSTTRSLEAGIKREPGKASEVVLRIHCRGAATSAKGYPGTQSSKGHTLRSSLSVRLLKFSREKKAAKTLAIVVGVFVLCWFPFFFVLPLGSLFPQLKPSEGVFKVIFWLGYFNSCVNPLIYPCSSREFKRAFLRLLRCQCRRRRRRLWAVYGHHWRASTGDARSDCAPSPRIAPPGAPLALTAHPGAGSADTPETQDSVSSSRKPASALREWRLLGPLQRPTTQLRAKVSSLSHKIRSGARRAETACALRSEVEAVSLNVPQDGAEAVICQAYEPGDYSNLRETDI
# T1 sequence (P43140 whole entry): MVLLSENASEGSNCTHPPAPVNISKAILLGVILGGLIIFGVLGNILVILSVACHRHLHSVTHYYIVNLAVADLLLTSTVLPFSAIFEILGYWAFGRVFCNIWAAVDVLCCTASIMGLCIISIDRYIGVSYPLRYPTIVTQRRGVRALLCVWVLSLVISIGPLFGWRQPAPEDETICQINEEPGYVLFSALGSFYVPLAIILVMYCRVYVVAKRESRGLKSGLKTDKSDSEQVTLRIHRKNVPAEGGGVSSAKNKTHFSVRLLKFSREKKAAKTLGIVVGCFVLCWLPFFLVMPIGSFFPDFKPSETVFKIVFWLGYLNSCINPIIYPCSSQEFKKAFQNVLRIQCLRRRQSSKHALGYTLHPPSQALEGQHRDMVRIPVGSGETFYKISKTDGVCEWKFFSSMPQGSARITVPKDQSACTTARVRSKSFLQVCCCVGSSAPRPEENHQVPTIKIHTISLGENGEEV
# Rattus norvegicus [3] = assay: Inhibition of 5-HT induced pressor response in pithed rats, after intravenous administration, activity is expressed as ED50; type: functional
# Rattus norvegicus [4] = species on record: Rattus norvegicus; assay: Inhibition of L-5-HTP (L-5-hydroxytryptophan) induced head twitches in rat; type: functional
# Mus musculus = species on record: Mus musculus; assay: Inhibition of methyl phenidate induced stereotyped gnawing in mice; type: functional
# Rattus norvegicus [5] = assay: Inhibition of 5-HT induced pressor response in pithed rats, after intravenous administration; type: functional
# Rattus norvegicus [6] = species on record: Rattus norvegicus; assay: Ratio of phenylephrine ED50/ 5-HT ED50; type: functional
# Rattus norvegicus [7] = assay: Percent reduction of diastolic arterial blood pressure(DAP) in spontaneously hypertensive rat after 10 min at intraperitoneal administration of 5 mg/kg; type: functional
# Rattus norvegicus [8] = assay: Percent reduction of systolic arterial blood pressure(SAP) in spontaneously hypertensive rat after 10 min at intraperitoneal administration of 5 mg/kg; type: functional
# [9] = biological target: Sodium-dependent dopamine transporter (Rattus norvegicus, UniProt P23977); assay: In vitro inhibition of [3H]dopamine uptake in rat brain synaptosomes; type: subcellular
# [10] = biological target: Norepinephrine transporter (Rattus norvegicus, UniProt Q9WTR4); assay: In vitro inhibition of [3H]norepinephrine uptake in rat brain synaptosomes; type: subcellular
# D(2) dopamine receptor = D(2) dopamine receptor (Rattus norvegicus, UniProt P61169); assay: Inhibition of [3H]spiperone binding to Dopamine receptor D2 from rat striatal membranes; type: cell membranes, Membrane
# Rattus norvegicus [11] = assay: Inhibition of phenylephrine induced pressor response in pithed rats (following i.v. administration of […]); type: functional; details: route intravenous
# Rattus norvegicus [12] = assay: Inhibition of 5-HT induced pressor response in pithed rats, after intravenous administration of 0.02 mg/kg; type: functional
# [13] = biological target: Serotonin 2 (5-HT2) receptor (Rattus norvegicus, UniProt P30994+P08909+P14842); assay: Inhibition of [3H]spiperone binding to 5-hydroxytryptamine 2 receptor from rat cortical membranes; type: cell membranes, Membrane
# Chain of D(2) dopamine receptor (P61169 whole entry): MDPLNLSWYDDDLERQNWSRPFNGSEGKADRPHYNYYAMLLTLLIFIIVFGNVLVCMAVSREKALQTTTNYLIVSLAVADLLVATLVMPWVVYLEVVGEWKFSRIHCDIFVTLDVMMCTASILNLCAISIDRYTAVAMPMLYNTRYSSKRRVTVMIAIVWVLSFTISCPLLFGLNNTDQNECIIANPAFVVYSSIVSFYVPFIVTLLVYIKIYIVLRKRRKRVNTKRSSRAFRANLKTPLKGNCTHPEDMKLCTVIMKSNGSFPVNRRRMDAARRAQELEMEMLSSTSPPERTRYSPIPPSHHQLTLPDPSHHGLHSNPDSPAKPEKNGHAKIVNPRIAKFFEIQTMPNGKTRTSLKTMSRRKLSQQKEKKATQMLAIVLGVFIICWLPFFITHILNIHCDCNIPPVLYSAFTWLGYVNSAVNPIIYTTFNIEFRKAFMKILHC
# Chain of Norepinephrine transporter (Q9WTR4 whole entry): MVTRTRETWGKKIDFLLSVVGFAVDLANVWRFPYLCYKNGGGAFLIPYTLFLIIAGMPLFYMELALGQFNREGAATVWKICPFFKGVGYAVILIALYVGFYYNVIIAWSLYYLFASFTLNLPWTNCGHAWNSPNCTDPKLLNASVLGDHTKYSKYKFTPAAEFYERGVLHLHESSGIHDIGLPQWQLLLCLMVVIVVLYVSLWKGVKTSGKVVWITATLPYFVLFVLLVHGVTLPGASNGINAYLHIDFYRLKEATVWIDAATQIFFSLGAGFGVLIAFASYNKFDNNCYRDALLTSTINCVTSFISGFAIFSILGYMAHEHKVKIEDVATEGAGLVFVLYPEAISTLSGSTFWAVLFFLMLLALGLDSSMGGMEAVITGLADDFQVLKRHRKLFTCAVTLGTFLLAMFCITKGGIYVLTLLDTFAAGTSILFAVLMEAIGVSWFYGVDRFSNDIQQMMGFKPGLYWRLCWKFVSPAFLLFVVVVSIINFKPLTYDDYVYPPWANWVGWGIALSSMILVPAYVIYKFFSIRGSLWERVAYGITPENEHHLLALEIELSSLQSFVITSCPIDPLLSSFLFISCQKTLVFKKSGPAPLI
# Chain of Sodium-dependent dopamine transporter (P23977 whole entry): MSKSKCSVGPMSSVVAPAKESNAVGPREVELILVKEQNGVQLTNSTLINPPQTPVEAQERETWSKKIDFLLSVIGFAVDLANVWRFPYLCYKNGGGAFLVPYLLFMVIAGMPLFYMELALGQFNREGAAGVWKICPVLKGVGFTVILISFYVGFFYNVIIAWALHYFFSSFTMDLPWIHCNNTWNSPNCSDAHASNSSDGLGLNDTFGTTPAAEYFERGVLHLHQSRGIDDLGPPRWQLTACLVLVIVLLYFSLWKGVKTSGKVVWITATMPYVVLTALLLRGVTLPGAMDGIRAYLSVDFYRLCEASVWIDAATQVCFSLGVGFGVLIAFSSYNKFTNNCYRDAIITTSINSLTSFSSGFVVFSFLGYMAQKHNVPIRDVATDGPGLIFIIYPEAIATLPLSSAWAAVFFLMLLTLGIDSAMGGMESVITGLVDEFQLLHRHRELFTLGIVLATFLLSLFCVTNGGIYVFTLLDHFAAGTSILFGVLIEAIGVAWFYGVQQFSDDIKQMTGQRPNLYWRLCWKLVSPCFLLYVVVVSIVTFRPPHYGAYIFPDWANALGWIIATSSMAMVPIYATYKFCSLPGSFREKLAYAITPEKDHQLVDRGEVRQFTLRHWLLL
# Chain of Sodium-dependent serotonin transporter (P31652 whole entry): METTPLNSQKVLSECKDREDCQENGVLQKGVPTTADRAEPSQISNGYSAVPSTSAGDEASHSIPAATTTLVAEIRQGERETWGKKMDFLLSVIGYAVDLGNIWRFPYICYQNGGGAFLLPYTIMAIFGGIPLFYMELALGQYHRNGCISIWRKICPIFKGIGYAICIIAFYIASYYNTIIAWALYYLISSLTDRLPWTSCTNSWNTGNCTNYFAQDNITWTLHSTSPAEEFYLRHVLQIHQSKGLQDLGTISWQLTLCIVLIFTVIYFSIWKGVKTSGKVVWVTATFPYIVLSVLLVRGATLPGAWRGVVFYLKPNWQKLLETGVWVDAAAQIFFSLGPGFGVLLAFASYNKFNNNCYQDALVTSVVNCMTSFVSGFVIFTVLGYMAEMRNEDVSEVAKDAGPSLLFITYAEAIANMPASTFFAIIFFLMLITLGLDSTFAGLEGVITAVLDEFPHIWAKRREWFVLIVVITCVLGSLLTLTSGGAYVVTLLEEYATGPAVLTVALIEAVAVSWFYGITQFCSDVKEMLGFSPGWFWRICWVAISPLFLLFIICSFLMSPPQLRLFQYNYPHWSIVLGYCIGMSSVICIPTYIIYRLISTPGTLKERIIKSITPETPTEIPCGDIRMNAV
Compound,IC50 [1],IC50 [2],ED50 (Rattus norvegicus [3]),ED50 (Rattus norvegicus [4]),ED50 (Mus musculus),ED50 (Rattus norvegicus [5]),Ratio (Rattus norvegicus [6]),Reduction (Rattus norvegicus [7]),Reduction (Rattus norvegicus [8]),IC50 [9],IC50 [10],IC50 (D(2) dopamine receptor),Change (Rattus norvegicus [11]),Change (Rattus norvegicus [12]),IC50 [13]
Fc1ccc([C@@H]2C[C@@H](N3CCNCC3)c3ccccc32)cc1.O=C(O)/C=C\C(=O)O.O=C(O)/C=C\C(=O)O,0.042 µM,0.037 µM,8.3 µmol/kg,1.7 µmol/kg,> 76 µmol/kg,0.1 µmol/kg,83,-31%,-25%,0.28 µM,0.45 µM,0.58 µM,10%,-40%,0.018 µM
O=C(O)/C=C\C(=O)O.O=C(O)/C=C\C(=O)O.O=C1NCCN1CCN1CCN([C@@H]2C[C@@H](c3ccc(F)cc3)c3ccc(F)cc32)CC1,0.72 µM,0.01 µM,1.4 µmol/kg,0.096 µmol/kg,,0.01 µmol/kg,140,-31%,-24%,5.7 µM,2.5 µM,0.046 µM,,,0.0043 µM
